According to patent US7244431B2, “Allergy vaccines and their preparation” (priority 2000, dated 2007):

Key:
[1] = test system: IgE antibodies in sera from birch pollen allergic patients; assay: ELISA detection of peptide- and rBet v 1-specific IgE antibodies; format: binding, human
Procedure: Birch pollen allergic patients suffering from allergic rhinoconjunctivitis and/or asthma to birch pollen and related allergens were selected according to case history indicative for seasonal birch pollinosis and characterized by skin prick testing with birch pollen extract and serological CAP RAST (Pharmacia Diagnostics, Uppsala, Sweden) testing. Total IgE levels in the sera were determined by CAP RIST measurements (Pharmacia). […] Sera from 60 birch pollen allergic patients and a non-atopic individual were used for IgE competition studies. The birch pollen allergic patients group consisted of 25 males and 35 females with a mean age of 37 years (ranging from 19-60 years) (Table 2).
Subsequently, plates were incubated with 1:3 diluted sera from 60 birch pollen allergic patients and from a non-atopic individual overnight at 4° C. Bound IgE antibodies were detected with a 1:1000 diluted alkaline-phosphatase-coupled mouse monoclonal anti-human IgE antibody (Pharmingen, San Diego, Calif.).

[2] = test system: birch pollen allergic patients; assay: Skin prick testing of allergic patients; format: in vivo, human; details: 100 μg/ml
Procedure: SPTs were performed on the individuals forearms as described ([…]. et al. (1997) J. Clin Invest. 99, 1673-168; Dreborg S: (1989) J. Am. Acad. DerMatol. 21, 820-821). […] In addition standardized skin prick solutions (birch pollen extract and histamine) (Allergopharma, Reinbek, Germany) were tested. Reactions were recorded 20 minutes after SPT by photography and by transferring the ballpoint pen-surrounded wheal area with a scotch tape to paper.

Sequence: DGGSILKISNKYHTKGDHEVKAEQVKASKEC [Peptide P4, Bet v 1-derived synthetic peptide, position aa 110-139, one cysteine added]
- IgE (OD) ([1]; serum of NHS, non-allergic control individual): — (Dashes indicate reactivities below the cut-off level (OD=0.050))
- IgE (OD) ([1]; serum of patient 1): — (Dashes indicate reactivities below the cut-off level (OD=0.050))
- IgE (OD) ([1]; serum of patient 2): — (Dashes indicate reactivities below the cut-off level (OD=0.050))
- IgE (OD) ([1]; serum of patient 3): — (Dashes indicate reactivities below the cut-off level (OD=0.050))
- IgE (OD) ([1]; serum of patient 4): — (Dashes indicate reactivities below the cut-off level (OD=0.050))
- IgE (OD) ([1]; serum of patient 5): — (Dashes indicate reactivities below the cut-off level (OD=0.050))
- IgE (OD) ([1]; serum of patient 6): — (Dashes indicate reactivities below the cut-off level (OD=0.050))
- IgE (OD) ([1]; serum of patient 7): — (Dashes indicate reactivities below the cut-off level (OD=0.050))
- IgE (OD) ([1]; serum of patient 8): — (Dashes indicate reactivities below the cut-off level (OD=0.050))
- IgE (OD) ([1]; serum of patient 9): — (Dashes indicate reactivities below the cut-off level (OD=0.050))
- IgE (OD) ([1]; serum of patient 10): — (Dashes indicate reactivities below the cut-off level (OD=0.050))
- IgE (OD) ([1]; serum of patient 11): — (Dashes indicate reactivities below the cut-off level (OD=0.050))
- IgE (OD) ([1]; serum of patient 12): — (Dashes indicate reactivities below the cut-off level (OD=0.050))
- IgE (OD) ([1]; serum of patient 13): — (Dashes indicate reactivities below the cut-off level (OD=0.050))
- IgE (OD) ([1]; serum of patient 14): — (Dashes indicate reactivities below the cut-off level (OD=0.050))
- IgE (OD) ([1]; serum of patient 15): — (Dashes indicate reactivities below the cut-off level (OD=0.050))
- IgE (OD) ([1]; serum of patient 16): — (Dashes indicate reactivities below the cut-off level (OD=0.050))
- IgE (OD) ([1]; serum of patient 17): — (Dashes indicate reactivities below the cut-off level (OD=0.050))
- IgE (OD) ([1]; serum of patient 18): — (Dashes indicate reactivities below the cut-off level (OD=0.050))
- IgE (OD) ([1]; serum of patient 19): — (Dashes indicate reactivities below the cut-off level (OD=0.050))
- IgE (OD) ([1]; serum of patient 20): — (Dashes indicate reactivities below the cut-off level (OD=0.050))
- IgE (OD) ([1]; serum of patient 21): — (Dashes indicate reactivities below the cut-off level (OD=0.050))
- IgE (OD) ([1]; serum of patient 22): — (Dashes indicate reactivities below the cut-off level (OD=0.050))
- IgE (OD) ([1]; serum of patient 23): — (Dashes indicate reactivities below the cut-off level (OD=0.050))
- IgE (OD) ([1]; serum of patient 24): — (Dashes indicate reactivities below the cut-off level (OD=0.050))
- IgE (OD) ([1]; serum of patient 25): — (Dashes indicate reactivities below the cut-off level (OD=0.050))
- IgE (OD) ([1]; serum of patient 26): — (Dashes indicate reactivities below the cut-off level (OD=0.050))
- IgE (OD) ([1]; serum of patient 27): — (Dashes indicate reactivities below the cut-off level (OD=0.050))
- IgE (OD) ([1]; serum of patient 28): — (Dashes indicate reactivities below the cut-off level (OD=0.050))
- IgE (OD) ([1]; serum of patient 29): — (Dashes indicate reactivities below the cut-off level (OD=0.050))
- IgE (OD) ([1]; serum of patient 30): — (Dashes indicate reactivities below the cut-off level (OD=0.050))
- IgE (OD) ([1]; serum of patient 31): — (Dashes indicate reactivities below the cut-off level (OD=0.050))
- IgE (OD) ([1]; serum of patient 32): — (Dashes indicate reactivities below the cut-off level (OD=0.050))
- IgE (OD) ([1]; serum of patient 33): — (Dashes indicate reactivities below the cut-off level (OD=0.050))
- IgE (OD) ([1]; serum of patient 34): — (Dashes indicate reactivities below the cut-off level (OD=0.050))
- IgE (OD) ([1]; serum of patient 35): — (Dashes indicate reactivities below the cut-off level (OD=0.050))
- IgE (OD) ([1]; serum of patient 36): — (Dashes indicate reactivities below the cut-off level (OD=0.050))
- IgE (OD) ([1]; serum of patient 37): — (Dashes indicate reactivities below the cut-off level (OD=0.050))
- IgE (OD) ([1]; serum of patient 38): — (Dashes indicate reactivities below the cut-off level (OD=0.050))
- IgE (OD) ([1]; serum of patient 39): — (Dashes indicate reactivities below the cut-off level (OD=0.050))
- IgE (OD) ([1]; serum of patient 40): — (Dashes indicate reactivities below the cut-off level (OD=0.050))
- IgE (OD) ([1]; serum of patient 41): — (Dashes indicate reactivities below the cut-off level (OD=0.050))
- IgE (OD) ([1]; serum of patient 42): — (Dashes indicate reactivities below the cut-off level (OD=0.050))
- IgE (OD) ([1]; serum of patient 43): — (Dashes indicate reactivities below the cut-off level (OD=0.050))
- IgE (OD) ([1]; serum of patient 44): — (Dashes indicate reactivities below the cut-off level (OD=0.050))
- IgE (OD) ([1]; serum of patient 45): — (Dashes indicate reactivities below the cut-off level (OD=0.050))
- IgE (OD) ([1]; serum of patient 46): — (Dashes indicate reactivities below the cut-off level (OD=0.050))
- IgE (OD) ([1]; serum of patient 47): — (Dashes indicate reactivities below the cut-off level (OD=0.050))
- IgE (OD) ([1]; serum of patient 48): — (Dashes indicate reactivities below the cut-off level (OD=0.050))
- IgE (OD) ([1]; serum of patient 49): — (Dashes indicate reactivities below the cut-off level (OD=0.050))
- IgE (OD) ([1]; serum of patient 50): — (Dashes indicate reactivities below the cut-off level (OD=0.050))
- IgE (OD) ([1]; serum of patient 51): — (Dashes indicate reactivities below the cut-off level (OD=0.050))
- IgE (OD) ([1]; serum of patient 52): — (Dashes indicate reactivities below the cut-off level (OD=0.050))
- IgE (OD) ([1]; serum of patient 53): — (Dashes indicate reactivities below the cut-off level (OD=0.050))
- IgE (OD) ([1]; serum of patient 54): — (Dashes indicate reactivities below the cut-off level (OD=0.050))
- IgE (OD) ([1]; serum of patient 55): — (Dashes indicate reactivities below the cut-off level (OD=0.050))
- IgE (OD) ([1]; serum of patient 56): — (Dashes indicate reactivities below the cut-off level (OD=0.050))
- IgE (OD) ([1]; serum of patient 57): — (Dashes indicate reactivities below the cut-off level (OD=0.050))
- IgE (OD) ([1]; serum of patient 58): — (Dashes indicate reactivities below the cut-off level (OD=0.050))
- IgE (OD) ([1]; serum of patient 59): — (Dashes indicate reactivities below the cut-off level (OD=0.050))
- IgE (OD) ([1]; serum of patient 60): — (Dashes indicate reactivities below the cut-off level (OD=0.050))
- mean wheal diameter ([2]; individual 1): 0 mm
- mean wheal diameter ([2]; individual 2): 0 mm
- mean wheal diameter ([2]; individual 3): 0 mm
- mean wheal diameter ([2]; individual 4): 0 mm
- mean wheal diameter ([2]; individual 5): 0 mm
- mean wheal diameter ([2]; individual 6 (allergic, without birch pollen allergy)): 0 mm
